Laboratory results as given in patent US20240252693A1, “FOLATE RECEPTOR-TARGETED RADIOTHERAPEUTIC AGENTS AND THEIR USE” (Novartis AG, priority 2021, published 2024).

Experiments:
[1] = molecular target: T1, folate receptor (FR) on KB cells (Homo sapiens, UniProt P15328); assay: Relative affinity assay: displacement of [3H]folic acid from FR-positive KB cells; format: binding; settings: inverse molar ratio to displace 50% of 100 nmol/L [3H]FA, 1 h 37 °C, folic acid set to 1
T1 construct: endogenous in cells; host or cells: KB cells
Description: FR-positive KB cells were seeded in 24-well Falcon plates and allowed to form adherent monolayers (>90% confluent) overnight in FDRPMI/10% FCS media. Spent incubation medium was replaced with FFRPMI supplemented with 10% HIFCS and containing 100 nmol/L of [^3H]FA in the absence and presence of increasing concentrations of unlabeled folic acid (FA), Compound 34, Compound 37, or non-targeted control (Table 14). Cells were incubated for 1 h at 37° C. and then rinsed three times with 0.5 mL PBS (phosphate-buffered saline). Five hundred microliters of 1% SDS (sodium dodecyl sulfate) in PBS were added to each well; after 5 min, cell lysates were collected, transferred to individual vials containing 5 mL of scintillation cocktail, and then counted for radioactivity. Cells exposed to only the [^3H]FA in FFRPMI (no competitor) were designated as negative controls, whereas cells exposed to the [^3H]FA plus 1 mmol/L unlabeled FA served as positive controls. Disintegrations per minute (DPM) measured in the latter samples (representing nonspecific binding of label) were subtracted from the DPM values from all samples. Relative affinities were defined as the inverse molar ratio of compound required to displace 50% of [^3H]FA bound to FR on KB cells, and the relative affinity of FA for the FR was set to 1.

[2] = molecular target: T2, folate receptors on FR-positive KB cells (Homo sapiens, UniProt P15328); assay: Binding affinity assay: direct binding of 177Lu-labelled compounds to FR-positive KB cells; settings: 177Lu-labelled compound, 1 h 37 °C
T2 construct: endogenous in cells; host or cells: KB cells
Description: FR-positive KB cells and FR-negative A549 cells were seeded in 24-well Falcon plates and allowed to form adherent monolayers (>90% confluent) overnight in FFRPMI/HIFCS. Spent incubation medium was replaced with FFRPMI supplemented with 10% HIFCS containing increasing concentrations (0.78 to 100 nmol/L) of [^177Lu]-Compound 34, [^177Lu]-Compound 37, or [^177Lu]-(non-targeted control) in the absence and presence of 10 μM FA. Cells were incubated for 1 h at 37° C. and then rinsed three times with 0.5 mL PBS. Five hundred microliters of 1% NaOH in PBS were added to each well; after 5 min, cell lysates were collected, transferred to individual tubes, and then counted for radioactivity on a gamma counter. Counts per minute (CPM) values were measured in all samples and plotted against concentration of [^177Lu]-Compound 34, [1^77Lu]-Compound 37, or [^177Lu]-(non-targeted control) using GraphPad Prism 8 program. Dissociation constants (Kd) was calculated using a GraphPad's nonlinear regression one site binding method.

[3] = system: FR-positive M109 tumor; assay: In vivo biodistribution in mice bearing M109 tumors; settings: 177Lu chelate
Excerpt: Four- to eight-week-old female nu/nu mice or NSG mice (Harlan Sprague-Dawley, Inc.) were maintained on a standard 12-h light-dark cycle and fed ad libitum with Folate deficient purified rodent diet (TestDiet #AIN-93G) for the duration of the experiment. FR-positive M109 or FR-negative HT29 tumor cells were inoculated in the subcutis dorsal medial area of mice. The biodistribution studies were typically performed when tumors were approximately 400-800 mm^3 in volume. Mice were divided into groups of three, and freshly prepared test articles and competitors were injected through the lateral tail vein in a volume of 100 μL/10 g of PBS. Four h to six days post radioactive-agent dose administration, mice were euthanized and organs (blood, heart, lungs, liver, spleen, and kidneys, intestine, stomach, muscle, brain and tumor) were collected, weighed and placed inside counting vials. Each tissue sample was counted for the activities of radioelement using a gamma-counter. Samples of the injectate were used as decay correction standards. Final bar graphs are expressed as % injected dose per gram of tissue or tumor to kidney ratio, or % tumor to (kidneys+liver+spleen) ratio.

[4] = system: KB tumor; assay: In vivo biodistribution in mice bearing KB tumors; settings: 225Ac chelate, 30 nmol/kg
[5] = system: FR-positive IGROV-1 tumor; assay: In vivo biodistribution in Athymic Nude-Foxn1nu mice bearing IGROV-1 tumors; settings: 177Lu chelate, 600 nmol/kg, 24 h post injection, mean ± SD
Description: Six week old female Athymic Nude-Foxn1nu mice (Envigo) were maintained on a standard 12-h light-dark cycle and fed ad libitum with folate deficient purified rodent dies (SSniff #E15321-147) for the duration of the experiment. FR-positive IGROV-1 tumor cells were inoculated in the subcutis dorsal medial area of mice. The biodistribution studies were […]. Mice were divided into groups of four, and freshly prepared test articles were injected through the lateral tail vein in a volume of 100 μL/10 g of PBS. Four h to 24 h post radioactive agent dose administration, mice were euthanized and organs (blood, bone, bowel (large and small), brain, heart, kidneys, liver, lungs, salivary glands, skeletal muscle, skin, spleen, stomach and tumor) were collected, weight and placed inside counting vials. Each tissue sample was counted for the activities of radioelement using a gamma-counter. Samples of the injective were used as decay correction standards. Final bar graph is expressed as % injected dose per gram of tissue FIG. 9.

[6] = system: MDA-MB-231 tumors; assay: In vivo anti-tumor activity in mice bearing MDA-MB-231 tumors; settings: 300 nmol/3.7 GBq/kg, female nu nu mice, n=5
Description: (§1) Four- to eight-week-old female nu nu mice or NSG mice (Harlan Sprague-Dawley, Inc.) were maintained on a standard 12-h light-dark cycle and fed ad libitum with folate deficient purified rodent diet (TestDiet #AIN-93G). FR-positive (human breast adenocarcinoma) or IGROV (human ovarian adenocarcinoma) or KB (human cervical adenocarcinoma) tumor cells were inoculated subcutaneously at the right flank of each mouse. Mice were dosed with [^177Lu]-Compound 34, [^177Lu]-Compound 37, or [^225Ac]-Compound 5 through the lateral tail vein under sterile conditions in a volume of 100 μL/10 g of phosphate-buffered saline (PBS). Growth of each s.c. tumor was followed by measuring the tumor two times per week. Tumors were measured in two perpendicular directions using Vernier calipers, and their volumes were calculated as 0.5×L×W^2, where L=measurement of longest axis in mm and W=measurement of axis perpendicular to L in mm. A stable disease (SD) was defined as volume reduction of <50% and increase of <50% in two weeks. A partial response (PR) was defined as volume regression >50% but with measurable tumor (>2 mm^3) remaining at all times. Complete response (CR) was defined as a disappearance of measurable tumor mass (<2 mm^3) at some point within the study. Cures were defined as CRs without tumor regrowth within the study time frame. As a general measure of gross toxicity, changes in body weights were determined on the same schedule as tumor volume measurements.

[7] = Stability of [177Lu]-Compound 34 solution, radiochemical purity by radio-HPLC; format: physicochemical
Description: Preparation of [^177Lu]-Compound 34: Compound 34 solution (250 μL, 2 mM) was added to a vial. Gentisic acid/acetate buffer pH 5.5 (800 μL) and ^177LuCl3 solution (170 μL, 184 mCi) were added to the vial. The vial was placed in a shielded heating block and heated at 95° C. for 15 min. After cooling to room temperature, 7 mL of DTPA/sodium ascorbate solution pH 7.4 was added to the labeling mixture. The final solution contains 184 mCi of ^177Lu, 0.6 mg of Compound 34, 8 mg of gentisic acid, 1.5 mg of DTPA, 350 mg of sodium ascorbate.
[^177Lu]-Compound 34 solution was stored at room temperature and in a refrigerator. The radiochemical purities were monitored using radio-HPLC. [^177Lu]-Compound 34 was stable up to 6 days.

[8] = Body weight as measure of gross toxicity in the MDA-MB-231 anti-tumor study; format: in vivo; settings: 300 nmol/3.7 GBq/kg, female nu nu mice bearing MDA-MB-231 tumors
Excerpt: as §1, with “Mice were dosed with [^177Lu]-Compound 34, [^177Lu]-Compound 37, or [^225Ac]-Compound 5 through the lateral tail vein under sterile conditions in a volume of 100 μL/10 g of phosphate-buffered saline (PBS).” left out

T1 sequence (P15328 25-234): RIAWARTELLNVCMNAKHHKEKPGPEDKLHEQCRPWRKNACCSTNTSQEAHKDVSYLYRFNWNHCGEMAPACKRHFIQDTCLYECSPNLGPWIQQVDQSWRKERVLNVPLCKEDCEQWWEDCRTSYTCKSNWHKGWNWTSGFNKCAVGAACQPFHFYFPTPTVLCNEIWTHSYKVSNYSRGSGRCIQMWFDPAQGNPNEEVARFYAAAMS
T2 sequence (P15328 25-234): as above

Row | SMILES | Relative Binding Affinity [1] | T/Kid ([3]; 300 nmol/kg) | T/Liv ([3]; 300 nmol/kg) | T/spl ([3]; 300 nmol/kg) | T^2/kid ([3]; 300 nmol/kg) | T/Kid [5] | T/Liv [5] | T/spl [5] | partial responses (PRs) [6] | Kd [2] | average weight of mice (tolerability) [8] | also measured
1 | O=C(O)CN1CCN(CC(=O)O)CCN([C@@H](CCC(=O)NC[C@H](NC(=O)c2ccc(NCc3ccc4ccccc4c3)cc2)C(=O)O)C(=O)O)CCN(CC(=O)O)CC1 [(non- targeted control), reference compound] | Non- binder | – | – | – | – | – | – | – | – | – | – | Direct Binding (Kd, nM) [2]: Non- binder
2 | Nc1nc2ncc(CNc3ccc(C(=O)N[C@@H](CCCCNC(=O)[C@H](Cc4ccc5ccccc5c4)NC(=O)[C@H]4CC[C@H](CNC(=O)CN5CCN(CC(=O)O)CCN(CC(=O)O)CCN(CC(=O)O)CC5)CC4)C(=O)O)cc3)nc2c(=O)[nH]1 [Compound 23] | – | 0.37 +/− 0.11 | 25.8 +/− 2.4 | 108 +/− 12.7 | 1.47 +/− 0.66 | – | – | – | – | – | – | T/Kid [4]: 0.08 +/− 0.03; T/Liv [4]: 1.8 +/− 0.7; T/spl [4]: 10.1 +/− 4.7
3 | Nc1nc2ncc(CNc3ccc(C(=O)N[C@@H](CCCCNC(=O)C[C@H](NC(=O)[C@H](Cc4ccc5ccccc5c4)NC(=O)CNC(=O)CN4CCN(CC(=O)O)CCN(CC(=O)O)CCN(CC(=O)O)CC4)C(=O)O)C(=O)O)cc3)nc2c(=O)[nH]1 [Compound 34, 2,2′,2″-(10-((3S,11S,14S)-1-(4-(((2-amino-4-oxo-3,4-dihydropteridin-6-yl)methyl)amino)phenyl)-3,11-dicarboxy-14-(naphthalen-2-ylmethyl)-1,9,13,16,19-pentaoxo-2,8,12,15,18-pentaazaicosan-20-yl)-1,4,7,10-tetraazacyclododecane-1,4,7-triyl)triacetic acid] | 2.21 | 0.55 +/− 0.1 | 25.3 +/− 6.6 | 98.3 +/− 25.1 | 1.7 +/− 0.9 | 0.29 +/− 0.05 | 1.53 +/− 0.57 | 0.49 +/− 0.07 | – | – | – | T/Kid ([3]; 600 nmol/kg): 0.80 +/− 0.18; T/Liv ([3]; 600 nmol/kg): 29.1 +/− 5.4; T/spl ([3]; 600 nmol/kg): 92.8 +/− 5.4; T^2/kid ([3]; 600 nmol/kg): 1.97 +/− 0.7
4 | Nc1nc2ncc(CNc3ccc(C(=O)N[C@@H](CCCCNC(=O)COc4ccc(C[C@H](NC(=O)CNC(=O)CN5CCN(CC(=O)O)CCN(CC(=O)O)CCN(CC(=O)O)CC5)C(=O)O)cc4)C(=O)O)cc3)nc2c(=O)[nH]1 [Compound 37, 2,2′,2″-(10-(2-((2-(((S)-2-(4-(2-(((S)-5-(4-(((2-amino-4-oxo-3,4-dihydropteridin-6-yl)methyl)amino)benzamido)-5-carboxypentyl)amino)-2-oxoethoxy)phenyl)-1-carboxyethyl)amino)-2-oxoethyl)amino)-2-oxoethyl)-1,4,7,10-tetraazacyclododecane-1,4,7-triyl)triacetic acid] | 1.53 | 0.46 +/− 0.14 | 13.2 +/− 4.5 | 61.9 +/− 14.4 | 1.51 +/− 0.57 | 0.15 +/− 0.03 | 1.37 +/− 0.37 | 0.49 +/− 0.17 | – | – | – | –
5 | Nc1nc2ncc(CNc3ccc(C(=O)N[C@@H](CCCCNC(=O)C[C@H](NC(=O)[C@H](Cc4ccc5ccccc5c4)NC(=O)CNC(=O)CN4CCN(CC(=O)O)CCN(CC(=O)O)CCN(CC(=O)O)CC4)C(=O)O)C(=O)O)cc3)nc2c(=O)[nH]1 [[^177Lu]-Compound 34, metal not drawn] | – | – | – | – | – | – | – | – | five | 7.21 nM | did not lose any significant weight | Radiochemical purity (%) ([7]; 0° C., 3 days): 97.19%; Radiochemical purity (%) ([7]; 0° C., 6 days): 96.58%; Radiochemical purity (%) ([7]; 0° C., initial): 97.14%; Radiochemical purity (%) ([7]; Room temperature (24° C.), 3 days): 96.77%; Radiochemical purity (%) ([7]; Room temperature (24° C.), 6 days): 95.89%; Radiochemical purity (%) ([7]; Room temperature (24° C.), initial): 97.14%; time over which the solution was stable ([7]; stored at room temperature and in a refrigerator, radio-HPLC): up to 6 days
6 | Nc1nc2ncc(CNc3ccc(C(=O)N[C@@H](CCCCNC(=O)COc4ccc(C[C@H](NC(=O)CNC(=O)CN5CCN(CC(=O)O)CCN(CC(=O)O)CCN(CC(=O)O)CC5)C(=O)O)cc4)C(=O)O)cc3)nc2c(=O)[nH]1 [[^177Lu]-Compound 37, metal not drawn] | – | – | – | – | – | – | – | – | four | 8.99 nM | did not lose any significant weight | complete response (CR) [6]: one
